Earlier results as cited in patent US20170296666A1, “Stable Pharmaceutical Composition Of Amorphous Ticagrelor” (Amneal Pharmaceuticals Company GmbH, priority 2016, published 2017).

Settings: class IV = low solubility and low permeability

Compound: CCCSc1nc(N[C@@H]2C[C@H]2c2ccc(F)c(F)c2)c2nnn([C@@H]3C[C@H](OCCO)[C@@H](O)[C@H]3O)c2n1 [Ticagrelor, (1S,2S,3R,5S)-3-[7-{[(1/R,2S)-2-(3,4-difluorophenyl)cyclopropyl]amino}-5 (propylthio)-3H-[1,2,3]-triazolo[4,5-d]pyrimidin-3-yl]-5-(2-hydroxyethoxy) cyclopentane-1,2-diol]
- Biopharmaceutics Classification System (BCS) class: class IV
